Test results as given in patent US20240199651A1, “ANTIBACTERIAL COMPOUNDS” (JANSSEN SCIENCES IRELAND UNLIMITED COMPANY, priority 2021, published 2024).
Like-named read-outs stand apart in the source and are kept apart here.

Assay: Mitochondrial toxicity (Glu/Gal) assay
Format: cell-based
Conditions: for Score: mitotoxicity score, Glu/Gal assay; for Δ IC50, glu/IC50, gal: ratio IC50 glu / IC50 gal
Text: The compounds of the invention/examples may have advantages associated with in vitro potency, kill kinetics (i.e. bactericidal effect) in vitro, PK properties, food effect, safety/toxicity (including liver toxicity, coagulation, 5-LO oxygenase), metabolic stability, Ames II negativity, MNT negativity, aqueous based solubility (and ability to formulate) and/or cardiovascular effect e.g. on animals (e.g. anesthetized guinea pig). Data that is generated/calculated may be obtained using standard methods/assays, for instance that are available in the literature or which may be performed by a supplier (e.g. Microsomal Stability Assay—Cyprotex, Mitochondrial toxicity (Glu/Gal) assay—Cyprotex, as well as literature CYP cocktail inhibition assays). GSH can be measured (reactive metabolites, glucuronidation) to observe if a dihydrodiol is observed by LCMS (fragmentation ions), which would correspond to a dihydroxylation on the core heterocycle.

[1] = galactose medium (Glu/Gal mitotoxicity assay), read-out: IC50, gal
[2] = glucose medium (Glu/Gal mitotoxicity assay), read-out: IC50, glu

SMILES | Score | Δ IC50, glu/IC50, gal | IC50 (read-out: IC50, gal) | IC50 (read-out: IC50, glu) | IC50 [1] | IC50 [2]
CCc1nc2ccc(Cl)cn2c1C(=O)NCc1ccc(-c2nc3n(n2)CCN(S(=O)(=O)C(F)(F)F)C3)c(F)c1 [Compound 3] | [x]1 | 0.91 | 73.1 µM | 66.2 µM |  | 
O=C(NCc1ccc(-c2nc3n(n2)CCN(S(=O)(=O)C(F)(F)F)C3)c(F)c1)c1c(C(F)F)nc2ccc(Cl)cn12 [Compound 5] | [x]1 | 0.96 | 117 µM | 112 µM |  | 
CCc1nc2cc(C)c(Cl)cn2c1C(=O)NCc1ccc(-c2nc3n(n2)CCN(S(=O)(=O)C(F)(F)F)C3)c(F)c1 [Compound 9] | [x]1 | 1.15 | 19.9 µM | 22.9 µM |  | 
CCc1nc2c(Cl)c(OC)ccn2c1C(=O)NCc1ccc(-c2nc3n(n2)CCN(S(=O)(=O)C(F)(F)F)C3)c(F)c1 [Compound 11] |  | >2.93 | 68.2 µM | > 200 µM |  | 
CCc1nc2cc(OC)c(Cl)cn2c1C(=O)NCc1cnc(-c2nc3n(n2)CCN(S(=O)(=O)C(F)(F)F)C3)c(F)c1 [Compound 16] |  |  |  |  | > 200 µM | > 200 µM
CCc1nc2ncc(F)cn2c1C(=O)NCc1ccc(-c2nc3n(n2)CCN(S(=O)(=O)C(F)(F)F)C3)c(F)c1 [Compound 17] |  |  |  |  | > 200 µM | > 200 µM
CCc1nc2cc(C)c(Cl)cn2c1C(=O)NCc1cnc(-c2nc3n(n2)CCN(S(=O)(=O)C(F)(F)F)C3)c(F)c1 [Compound 20] | [x]1 | >1.3 | 154 µM | > 200 µM |  | 
CCc1nc2c(F)cc(Cl)cn2c1C(=O)NCc1ccc(-c2nc3n(n2)CCN(S(=O)(=O)C(F)(F)F)C3)cc1 [Compound 21] | [x]1 | 1.65 | 59.4 µM | 97.9 µM |  | 
CCc1nc2ccc(F)cn2c1C(=O)NCc1ccc(-c2nc3n(n2)CCN(S(=O)(=O)C(F)(F)F)C3)cc1 [Compound 22] | [x]1 | 1.51 | 62.6 µM | 94.7 µM |  | 
CCc1nc2cc(C)c(C)cn2c1C(=O)NCc1ccc(-c2nc3n(n2)CCN(S(=O)(=O)C(F)(F)F)C3)cc1 [Compound 23] |  |  |  |  | > 200 µM | > 200 µM
CCc1nc2cc(Cl)c(C)cn2c1C(=O)NCc1ccc(-c2nc3n(n2)CCN(S(=O)(=O)C(F)(F)F)C3)cc1 [Compound 25] |  | >2.26 | 22.1 µM | > 50 µM |  | 
CCc1nc2ncc(C(C)C)cn2c1C(=O)NCc1ccc(-c2nc3n(n2)CCN(S(=O)(=O)C(F)(F)F)C3)cc1 [Compound 26] |  |  |  |  | > 200 µM | > 200 µM
CCc1nc2ccc(C3CC3)cn2c1C(=O)NCc1ccc(-c2nc3n(n2)CCN(S(=O)(=O)C(F)(F)F)C3)cc1 [Compound 27] |  | 2.34 | 44.5 µM | 104 µM |  | 
CCc1nc2ncc(C3CC3)cn2c1C(=O)NCc1ccc(-c2nc3n(n2)CCN(S(=O)(=O)C(F)(F)F)C3)cc1 [Compound 28] |  |  | > 200 µM | > 200 µM |  | 
Cc1cnc2nc(C)c(C(=O)NCc3ccc(-c4nc5n(n4)CCN(S(=O)(=O)C(F)(F)F)C5)cc3)n2c1 [Compound 29] |  |  |  |  | > 200 µM | > 200 µM
Cc1ccc2nc(C3CC3)c(C(=O)NCc3ccc(-c4nc5n(n4)CCN(S(=O)(=O)C(F)(F)F)C5)cc3)n2c1 [Compound 30] | [x]1 | 1.35 | 71.1 µM | 95.7 µM |  | 
CCc1nc2n(c1C(=O)NCc1ccc(-c3nc4n(n3)CCN(S(=O)(=O)C(F)(F)F)C4)cc1)CCCC2 [Compound 31] |  |  |  |  | > 200 µM | > 200 µM
Cc1cn2c(C(=O)NCc3ccc(-c4nc5n(n4)CCN(S(=O)(=O)C(F)(F)F)C5)cc3)c(C)nc2s1 [Compound 32] | [x]3 | >12.72 | 15.7 µM | > 200 µM |  | 
CCc1nc2nc(C)c(C)cn2c1C(=O)NCc1ccc(-c2nc3n(n2)CCN(S(=O)(=O)C(F)(F)F)C3)cc1 [Compound 33] | [x]1 | <0.98 | > 200 µM | 196 µM |  | 

SMILES | Score | Δ IC50, glu/IC50, gal | IC50 (read-out: IC50, gal) | IC50 (read-out: IC50, glu) | IC50 [1] | IC50 [2]
Cc1ccc2nc(C)c(C(=O)NCc3ccc(-c4nc5n(n4)CCN(S(=O)(=O)C(F)(F)F)C5)cc3)n2c1 [Compound 34] | [x]0 | >1.13 | 44.2 µM | > 50 µM |  | 
CCc1nc2ccc(C(C)C)cn2c1C(=O)NCc1ccc(-c2nc3n(n2)CCN(S(=O)(=O)C(F)(F)F)C3)cc1 [Compound 35] | [x]0 | >1.25 | 40.1 µM | > 50 µM |  | 
CCc1nc2sc(C)cn2c1C(=O)NCc1ccc(-c2nc3n(n2)CCN(S(=O)(=O)C(F)(F)F)C3)cc1 [Compound 36] | [x]0 | >1.26 | 79.5 µM | > 100 µM |  | 
CCc1nc2ncc(C)cn2c1C(=O)NCc1ccc(-c2nc3n(n2)CCNC3)cc1 [Compound 37] |  |  |  |  | > 200 µM | > 200 µM
Cc1nc2sc(Cl)cn2c1C(=O)NCc1ccc(-c2nc3n(n2)CCN(S(=O)(=O)C(F)(F)F)C3)cc1 [Compound 38] | [x]3 | >11.52 | 8.68 µM | > 100 µM |  | 
CCc1nc2ncc(C)cn2c1C(=O)NCc1ccc(-c2nc3n(n2)CCN(C(C)=O)C3)cc1 [Compound 40] |  |  |  |  | > 200 µM | > 200 µM
CCc1nc2ncc(C)cn2c1C(=O)NCc1ccc(-c2nc3n(n2)CCN(S(=O)(=O)N(C)C)C3)cc1 [Compound 41] |  |  |  |  | > 200 µM | > 200 µM
CCc1nc2ncc(C)cn2c1C(=O)NCc1ccc(-c2nc3n(n2)CCN(C(=O)C(F)(F)F)C3)cc1 [Compound 43] |  |  |  |  | > 200 µM | > 200 µM
CCc1nc2nc3c(cn2c1C(=O)NCc1ccc(-c2nc4n(n2)CCN(S(=O)(=O)C(F)(F)F)C4)cc1)CCC3 [Compound 45] |  |  |  |  | > 100 µM | > 100 µM
CCc1nc2ccc(C)cn2c1C(=O)NCc1ccc(-c2nc3n(n2)CCN(C(C)=O)C3)cc1 [Compound 46] |  |  |  |  | > 200 µM | > 200 µM
CCc1nc2ccc(C)cn2c1C(=O)NCc1ccc(-c2nc3n(n2)CCN(S(=O)(=O)N2CCCC2)C3)cc1 [Compound 48] |  |  |  |  | > 200 µM | > 200 µM
CCc1nc2ncc(C)cn2c1C(=O)NCc1ccc(-c2nc3n(n2)CCN(C)C3)cc1 [Compound 50] |  |  |  |  | > 200 µM | > 200 µM
CCc1nc2ccc(C)cn2c1C(=O)NCc1ccc(-c2nc3n(n2)CCN(S(=O)(=O)N(C)C)C3)cc1 [Compound 51] |  |  |  |  | > 200 µM | > 200 µM
CCc1nc2ccc(C)cn2c1C(=O)NCc1ccc(-c2nc3n(n2)CCNC3)cc1 [Compound 52] |  |  |  |  | > 200 µM | > 200 µM
CCc1nc2ccc(C)cn2c1C(=O)NCc1ccc(-c2nc3n(n2)CCN(C(=O)C(F)(F)F)C3)cc1 [Compound 53] |  |  |  |  | > 200 µM | > 200 µM
CCc1nc2ncc(C)cn2c1C(=O)NCc1ccc(-c2nc3n(n2)CCN(CCOC)C3)cc1 [Compound 54] |  |  |  |  | > 200 µM | > 200 µM
CCc1nc2ccc(C)cn2c1C(=O)NCc1ccc(-c2nc3n(n2)CCN(CCOC)C3)cc1 [Compound 55] | [x]1 | >1.15 | 174 µM | > 200 µM |  | 
CCc1nc2ccc(C)cn2c1C(=O)NCc1ccc(-c2nc3n(n2)CCN(C)C3)cc1 [Compound 56] |  |  |  |  | > 200 µM | > 200 µM
